Patent US11278514B2, “Composition compromising dunnione as effective ingredient for prevention or alleviation of hair loss” (NADIANBIO LTD., priority 2018, dated 2022)

Experiments:
[1] = tested on: C57BL/6 mice having alopecia caused by cyclophosphamide; conditions: cyclophosphamide alone (150 mg/kg i.p.); day 18
Experimental: The day, on which the mice were hair-removed in Example 1, was set as day 0, and the animals were divided into the following groups: normal group (Control, 4 animals) in which only PBS is intraperitoneally injected on day 9; cyclophosphamide group (CYP, 6 animals) in which cyclophosphamide (150 mg/kg) is intraperitoneally injected on day 9; combination-treated group (CYP+Dunnione, 6 animals) in which dunnione is orally administered on a daily basis starting from 3 days prior to treatment with cyclophosphamide; and dunnione alone-treated group (Dunnione, 4 animals) in which only dunnione (20 mg/kg) is administered (FIG. 1).
The day, on which the mice were hair-removed in Example 1, was set as day 0, and the mice in each of the experimental groups described in Example 2 were sacrificed on day 18. Subsequently, the mouse dorsal skin was dissected parallel or perpendicular to the vertebral line, and removed. The removed skin was fixed with a Bouin's solution for 12 hours, subjected to dehydration, and embedded in paraffin. Then, the resulting product was prepared into 5-μm sections. The prepared sections were subjected to hematoxylin and eosin (H&E) staining, and histological changes in the skin in each experimental group were observed.

patients = conditions: cancer patients; Batchelor D., Eur J Cancer Care, 2001; cited from earlier work
NAD^+ = assay: NAD+ and NADH concentrations and NAD+/NADH ratio in skin tissue, cyclophosphamide alopecia model; assay type: in vivo, mice; conditions: cyclophosphamide alone vs normal group; day 18
Experimental: Specifically, in order to quantify the NAD^+ and NADH concentrations in the skin tissue obtained from the animal model prepared by the method in Example 2, the skin tissue was tested with the analysis kit (E2ND-100) of BioAssay Systems according to the instruction manual, and then the NAD^+/NADH ratio was analyzed. First, 10 mg of skin tissue was collected from the animal model. Then, 100 μl of extraction solution for NAD^+ or NADH was added to the skin tissue and homogenized. Then, the homogenized skin tissue was subjected to heat treatment at 60° C. for 5 minutes. Neutralization was performed by addition of the same volume of the extraction solution, and then centrifugation was performed at 14,000 rpm for 5 minutes to obtain the supernatant. Then, a developing reagent was added to the supernatant. The NAD^+ and NADH concentrations were determined from the absorbance measured at a wavelength of 565 nm, and the NAD^+/NADH ratio was analyzed.

p53 = assay: Acetylation of p53 in skin tissue (western blot), cyclophosphamide alopecia model; assay type: in vivo, mice; conditions: cyclophosphamide alone; day 18
Experimental: (§1) In the cyclophosphamide-induced alopecia mouse model of Example 2, expression level of Sirt1 protein and acetylation reaction of the target proteins thereof, NF-κB p65 and p53, were identified on the skin tissue obtained on day 18 after hair removal.
(§2) Specifically, 10 mg of the skin tissue obtained from the animal model prepared by the method in Example 2 was homogenized by addition of a lysis solution (RIPA lysis buffer). Then, centrifugation was performed at 14,000 rpm for 10 minutes. The protein concentration in the supernatant was quantified with a bovine serum albumin (BSA) standard solution. The skin tissue protein was used in an amount of 40 μg per test solution. First, the homogenized skin tissue was mixed with a sample solution (Bio-Rad, 161-0747) and inactivated at a temperature of 95° C. for 5 minutes. Thereafter, the protein was separated by a sodium dodecyl sulfate-polyacrylamide gel electrophoresis (SDS-PAGE) method, and then transferred to a nitrocellulose membrane. Treatment with anti-Sirt1 antibody (Abcam), anti-acetyl NF-κB p65 antibody and anti-acetyl p53 antibody (Cell Signaling Technologies), and anti-β-actin antibody (Santa Cruz Biotechnology) as primary antibodies were performed, and reaction was allowed to proceed. […]

Sirt1 = Sirt1 activity in skin tissue (fluorescent Sirt1 detection kit), cyclophosphamide alopecia model; assay type: in vivo, mice; conditions: cyclophosphamide alone; day 18
Experimental: In addition, the skin tissue obtained from the animal model prepared by the method in Example 2 was homogenized. The homogenized skin tissue was tested with the fluorescent Sirt1 detection kit (BML-AK555-0001) of Enzo Life Sciences International, Inc. according to the instruction manual, and then Sirt1 activity was analyzed. 40 μg of the homogenized skin tissue was mixed with a reaction solution (Fluor de Lys-Sirt1, NAD+, buffer solution (25 mM Tris-HCl (pH8.0), 137 mM NaCl, 2.7 mM […], 1 mM MgCl2, and 1 mg/mL BSA)), and reaction was allowed to proceed at a temperature of 37° C. for 1 hour. Then, additional reaction was allowed to proceed for 5 minutes under a condition in which a developer is added. In order to check the final Sirt1 activity, readings were measured for the reaction solution using the CytoFluor series 4000 fluorometer (PerSeptive Biosystems, Inc., USA) with the excitation wavelength set to 360 nm and the emission to 460 nm.

NQO1 knockout mice [2] = conditions: cyclophosphamide alone (150 mg/kg i.p.), until day 18
Experimental: (§3) The day, on which the NQO1 knockout mice were hair-removed according to Example 1, was set as day 0, and the animals were divided into the following experimental groups and used for experiments: normal group (Control, 4 animals) in which only PBS is intraperitoneally injected on day 9; cyclophosphamide group (CYP, 6 animals) in which cyclophosphamide (150 mg/kg) is intraperitoneally injected on day 9; combination-treated group (CYP+Dunnione, 6 animals) in which dunnione is orally administered on a daily basis starting from 3 days prior to treatment with cyclophosphamide; and dunnione alone-treated group (Dunnione, 4 animals) in which only dunnione (20 mg/kg) is administered (FIG. 1).

NQO1 knockout mice [3] = conditions: cyclophosphamide alone, day 18
Experimental: as §3
The day, on which the NQO1 knockout mice were hair-removed according to Example 1, was set as day 0, and the mice in each of the experimental groups described in Example 3 were sacrificed on day 18. Subsequently, the mouse dorsal skin was dissected parallel or perpendicular to the vertebral line, and removed. The removed skin was fixed with a Bouin's solution for 12 hours, subjected to dehydration, and embedded in paraffin. Then, the resulting product was prepared into 5-μm sections. The prepared sections were subjected to hematoxylin and eosin (H&E) staining, and histological changes in the skin in each experimental group were observed.

Sirt1 protein = assay: Expression level of Sirt1 protein in skin tissue (western blot), cyclophosphamide alopecia model; assay type: in vivo, mice; conditions: cyclophosphamide alone; day 18
Experimental: as §1, §2

NF-κB p65 = assay: Acetylation of NF-κB p65 in skin tissue (western blot), cyclophosphamide alopecia model; assay type: in vivo, mice; conditions: cyclophosphamide alone; day 18
Experimental: as §1, §2

O=P1(N(CCCl)CCCl)NCCCO1 (stereo not shown) [cyclophosphamide, reference compound]
development of hair follicles and inner root sheaths (histology) [1]: the hair follicles have poorly developed or the inner root sheaths have insufficiently developed | patients in whom the agent causes CIA (patients): ≥ 60% | NAD^+ concentration in skin tissue (NAD^+): decreased | NAD^+/NADH ratio in skin tissue (NAD^+): decreased | acetylation of p53 in skin tissue (p53): increased | Sirt1 activity in skin tissue (Sirt1): decreased | hair growth, visual observation of skin (NQO1 knockout mice [2]): hair hardly grew until day 18 after hair removal | development of hair follicles and inner root sheaths (histology) (NQO1 knockout mice [3]): the hair follicles have poorly developed or the inner root sheaths have insufficiently developed | expression level of Sirt1 protein in skin tissue (Sirt1 protein): decreased | acetylation of NF-κB p65 in skin tissue (NF-κB p65): increased
